Molecules are shown by their SMILES. Positions of bridges follow the written chain, without caps; N, C: chain ends. Non-standard residues stand in square brackets, D forms with d. Residues, ends and D or L forms follow the SMILES beside them. *: point of attachment. Trp(7-Me) = Cc1cccc2c(C[C@H](N)C(=O)O)c[nH]c12; 2Nal = N[C@@H](Cc1ccc2ccccc2c1)C(=O)O; AEF = NCCOc1ccc(C[C@H](N)C(=O)O)cc1; αMeF = C[C@](N)(Cc1ccccc1)C(=O)O; Cit = NC(=O)NCCC[C@H](N)C(=O)O; αMeL = CC(C)C[C@](C)(N)C(=O)O; Pen = CC(C)(S)[C@H](N)C(=O)O; αMeK = C[C@](N)(CCCCN)C(=O)O; Isobutyryl = CC(C)C(=O)*; Ac5c = NC1(C(=O)O)CCCC1; Thp = NC1(C(=O)O)CCOCC1; Aib = CC(C)(N)C(=O)O

Broadly, the IC50 is the concentration needed to halve the response being measured. A high value points to weaker potency.
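Further: cryopreserved PBMCs stimulated at 37 °C in 5% CO2, then lysed, with phosphorylated STAT3 quantified in lysates using a phospho-STAT panel kit.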

Sequence of IL-23R (Q5VWK5 24-629): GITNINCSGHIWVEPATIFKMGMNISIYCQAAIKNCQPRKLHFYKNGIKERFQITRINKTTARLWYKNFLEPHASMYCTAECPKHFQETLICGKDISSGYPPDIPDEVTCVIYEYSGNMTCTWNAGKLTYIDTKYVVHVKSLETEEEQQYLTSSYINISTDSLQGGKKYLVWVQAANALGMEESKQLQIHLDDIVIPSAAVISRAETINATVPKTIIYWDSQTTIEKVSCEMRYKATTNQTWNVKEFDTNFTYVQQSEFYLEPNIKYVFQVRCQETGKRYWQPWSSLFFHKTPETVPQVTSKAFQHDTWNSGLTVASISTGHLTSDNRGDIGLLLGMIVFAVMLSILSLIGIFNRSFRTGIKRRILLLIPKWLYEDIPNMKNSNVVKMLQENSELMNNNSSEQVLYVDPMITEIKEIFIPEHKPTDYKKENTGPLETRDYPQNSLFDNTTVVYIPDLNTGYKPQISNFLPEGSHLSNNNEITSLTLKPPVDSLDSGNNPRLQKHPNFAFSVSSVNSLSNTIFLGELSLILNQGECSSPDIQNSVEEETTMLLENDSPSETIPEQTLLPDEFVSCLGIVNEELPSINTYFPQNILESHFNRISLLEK

This test has as its target IL-23R (Homo sapiens, UniProt Q5VWK5). Kind of test: cell-based. To be noted: PBMC pSTAT3 IC50 (nM), PBMCs from healthy donors, IL-23 5 ng/mL, 30 minutes, phosphorylated STAT3.
`CC(=O)N[C@H](CCCNC(=N)N)C(=O)N[C@@H]1C(=O)N[C@@H](CC(N)=O)C(=O)N[C@@H]([C@@H](C)O)C(=O)N[C@@H](Cc2c[nH]c3c(C)cccc23)C(=O)N[C@@H](CCCNC(N)=O)C(=O)N[C@H](C(=O)N[C@@H](Cc2ccc(OCCN)cc2)C(=O)N[C@@H](Cc2ccc3ccccc3c2)C(=O)N[C@@](C)(CC(C)C)C(=O)N[C@@H](CCC(=O)O)C(=O)N[C@@H](CC(N)=O)C(=O)N[C@@](C)(Cc2ccccc2)C(N)=O)C(C)(C)SSC1(C)C` [Compound 149, Ac-[(D)Arg]-[Pen]-N-T-[W(7-Me)]-[Cit]-[Pen]-Phe[4-(2-aminoethoxy)]-[2-Nal]-[aMeLeu]-E-N-[a-MePhe]-NH2] (Ac-[dR][Pen]NT[Trp(7-Me)][Cit][Pen][AEF][2Nal][αMeL]EN[αMeF]-NH2; disulfide 2-7) yielded an IC50 of 2.3 nM. `CC(=O)NCCCC[C@H](NC(=O)[C@](C)(CCCCN)NC(=O)[C@H](Cc1ccc2ccccc2c1)NC(=O)[C@H](Cc1ccc(OCCN)cc1)NC(=O)[C@H]1NC(=O)[C@H](CCCNC(N)=O)NC(=O)[C@H](Cc2c[nH]c3c(C)cccc23)NC(=O)[C@H]([C@@H](C)O)NC(=O)[C@H](CC(N)=O)NC(=O)[C@@H](NC(C)=O)C(C)(C)SSC1(C)C)C(=O)N[C@@H](CC(N)=O)C(=O)NC(C)(C)C(N)=O` [Compound 302, MeCO-Pen-N-T-7MeW-Cit-Pen-AEF-2Nal-aMeK-K(Ac)-N-Aib-CONH2] (Ac-[Pen]NT[Trp(7-Me)][Cit][Pen][AEF][2Nal][αMeK]K(Ac)N[Aib]-NH2; disulfide 1-6) displayed an IC50 of 7 nM. Under `CC(=O)NCCCC[C@@H]1NC(=O)[C@H](Cc2c[nH]c3c(C)cccc23)NC(=O)[C@H]([C@@H](C)O)NC(=O)[C@H](CC(N)=O)NC(=O)[C@@H](NC(C)=O)C(C)(C)SSC(C)(C)[C@@H](C(=O)N[C@@H](Cc2ccc(OCCN)cc2)C(=O)N[C@@H](Cc2ccc3ccccc3c2)C(=O)N[C@@](C)(CCCCN)C(=O)N[C@@H](CCCCNC(C)=O)C(=O)N[C@@H](CC(N)=O)C(=O)N[C@@](C)(Cc2ccccc2)C(=O)N[C@H](Cc2ccc(O)cc2)C(N)=O)NC1=O` [Compound 100, Ac-[Pen]-N-T-[W(7-Me)]-[Lys(Ac)]-[Pen]-Phe[4-(2-aminoethoxy)]-[2-Nal]-[a-MeLys]-[Lys(Ac)]-N-[a-MePhe]-[(D)Tyr]-NH2] stands 21 nM; under `CC(=O)NCCCC[C@H](NC(=O)C1(NC(=O)[C@H](Cc2ccc3ccccc3c2)NC(=O)[C@H](Cc2ccc(OCCN)cc2)NC(=O)[C@H]2NC(=O)[C@H](CCC(N)=O)NC(=O)[C@H](Cc3c[nH]c4ccccc34)NC(=O)[C@H]([C@@H](C)O)NC(=O)[C@H](CCC(N)=O)NC(=O)[C@@H](NC(=O)[C@@H](CCCNC(=N)N)NC(C)=O)C(C)(C)SSC2(C)C)CCOCC1)C(=O)N[C@@H](CC(N)=O)C(=O)N[C@@H](Cc1ccccc1)C(N)=O` [Compound 53, Ac-[(D)Arg]-[Pen]-Q-T-W-Q-[Pen]-Phe[4-(2-aminoethoxy)]-[2-Nal]-[THP]-[Lys(Ac)]-N-F-NH2] (Ac-[dR][Pen]QTWQ[Pen][AEF][2Nal][Thp]K(Ac)NF-NH2; disulfide 2-7), 29 nM; under `CC(=O)N[C@H](CCCNC(=N)N)C(=O)N[C@@H]1C(=O)N[C@@H](CCC(N)=O)C(=O)N[C@@H]([C@@H](C)O)C(=O)N[C@@H](Cc2c[nH]c3ccccc23)C(=O)N[C@@H](CCC(N)=O)C(=O)N[C@H](C(=O)N[C@@H](Cc2ccc(OCCN)cc2)C(=O)N[C@@H](Cc2ccc3ccccc3c2)C(=O)NC2(C(=O)N[C@@H](CCCCNC(=O)C(C)C)C(=O)N[C@@H](CC(N)=O)C(=O)N[C@@H](Cc3ccccc3)C(N)=O)CCOCC2)C(C)(C)SSC1(C)C` [Compound 61, Ac-[(D)Arg]-[Pen]-Q-T-W-Q-[Pen]-Phe[4-(2-aminoethoxy)]-[2-Nal]-[THP]-[Lys(COiPr)]-N-F-NH2] (Ac-[dR][Pen]QTWQ[Pen][AEF][2Nal][Thp]K(Isobutyryl)NF-NH2; disulfide 2-7), 70 nM. The figure for `CC(=O)NCCCC[C@@H]1NC(=O)[C@H](Cc2c[nH]c3c(C)cccc23)NC(=O)[C@H]([C@@H](C)O)NC(=O)[C@H](CC(N)=O)NC(=O)[C@@H](NC(=O)[C@@H](CCCNC(=N)N)NC(C)=O)C(C)(C)SSC(C)(C)[C@@H](C(=O)N[C@@H](Cc2ccc(OCCN)cc2)C(=O)N[C@@H](Cc2ccc3ccccc3c2)C(=O)NC2(C(=O)N[C@@H](CCC(=O)O)C(=O)N[C@@H](CC(N)=O)C(=O)NC3(C(N)=O)CCOCC3)CCCC2)NC1=O` [Compound 101, Ac-[(D)Arg]-[Pen]-N-T-[W(7-Me)]-[Lys(Ac)]-[Pen]-Phe[4-(2-aminoethoxy)]-[2-Nal]-[Acvc]-E-N-[THP]-NH2] (Ac-[dR][Pen]NT[Trp(7-Me)]K(Ac)[Pen][AEF][2Nal][Ac5c]EN[Thp]-NH2; disulfide 2-7) is 0.74 nM; for `CC(=O)N[C@H](CCCNC(=N)N)C(=O)N[C@@H]1C(=O)N[C@@H](CC(N)=O)C(=O)N[C@@H]([C@@H](C)O)C(=O)N[C@@H](Cc2c[nH]c3c(C)cccc23)C(=O)N[C@@H](CCC(N)=O)C(=O)N[C@H](C(=O)N[C@@H](Cc2ccc(OCCN)cc2)C(=O)N[C@@H](Cc2ccc3ccccc3c2)C(=O)NC2(C(=O)N[C@@H](CCC(=O)O)C(=O)N[C@@H](CC(N)=O)C(=O)NC3(C(N)=O)CCOCC3)CCOCC2)C(C)(C)SSC1(C)C` [Compound 90, Ac-[(D)Arg]-[Pen]-N-T-[W(7-Me)]-Q-[Pen]-Phe[4-(2-aminoethoxy)]-[2-Nal]-[THP]-E-N-[THP]-NH2] (Ac-[dR][Pen]NT[Trp(7-Me)]Q[Pen][AEF][2Nal][Thp]EN[Thp]-NH2; disulfide 2-7) it is 3.7 nM; for `CC(=O)NCCCC[C@@H]1NC(=O)[C@H](Cc2c[nH]c3c(C)cccc23)NC(=O)[C@H]([C@@H](C)O)NC(=O)[C@H](CC(N)=O)NC(=O)[C@@H](NC(C)=O)C(C)(C)SSC(C)(C)[C@@H](C(=O)N[C@@H](Cc2ccc(OCCN)cc2)C(=O)N[C@@H](Cc2ccc3ccccc3c2)C(=O)NC2(C(=O)N[C@@H](CCCCNC(=O)C(F)(F)F)C(=O)N[C@@H](CC(N)=O)C(=O)N[C@@](C)(Cc3ccccc3)C(N)=O)CCOCC2)NC1=O` [Compound 138, Ac-[Pen]-N-T-[W(7-Me)]-[Lys(Ac)]-[Pen]-Phe[4-(2-aminoethoxy)]-[2-Nal]-[THP]-[Lys(COCF3)]-N-[a-MePhe]-NH2] it is 7.6 nM. The figure for `CC(=O)NCCCC[C@@H]1NC(=O)[C@H](Cc2c[nH]c3c(C)cccc23)NC(=O)[C@H]([C@@H](C)O)NC(=O)[C@H](CC(N)=O)NC(=O)[C@@H](NC(C)=O)C(C)(C)SSC(C)(C)[C@@H](C(=O)N[C@@H](Cc2ccc(OCCN)cc2)C(=O)N[C@@H](Cc2ccc3ccccc3c2)C(=O)NC2(C(=O)N[C@@H](CCCCNC(=O)C(F)(F)F)C(=O)N[C@@H](CC(N)=O)C(=O)NC3(C(N)=O)CCOCC3)CCOCC2)NC1=O` [Compound 140, Ac-[Pen]-N-T-[W(7-Me)]-[Lys(Ac)]-[Pen]-Phe[4-(2-aminoethoxy)]-[2-Nal]-[THP]-[Lys(COCF3)]-N-[THP]-NH2] is 2.6 nM. Take `CC(=O)NCCCC[C@@H]1NC(=O)[C@H](Cc2c[nH]c3c(C)cccc23)NC(=O)[C@H]([C@@H](C)O)NC(=O)[C@H](CC(N)=O)NC(=O)[C@@H](NC(C)=O)C(C)(C)SSC(C)(C)[C@@H](C(=O)N[C@@H](Cc2ccc(OCCN)cc2)C(=O)N[C@@H](Cc2ccc3ccccc3c2)C(=O)N[C@@](C)(CCCCN)C(=O)N[C@@H](CCCCNC(C)=O)C(=O)N[C@@H](CC(N)=O)C(=O)N[C@@](C)(Cc2ccccc2)C(=O)N[C@H](Cc2ccc(N)cc2)C(N)=O)NC1=O` [Compound 114, Ac-[Pen]-N-T-[W(7-Me)]-[Lys(Ac)]-[Pen]-Phe[4-(2-aminoethoxy)]-[2-Nal]-[a-MeLys]-[Lys(Ac)]-N-[a-MePhe]-(D)Phe[4-NH2]-NH2]: the midpoint of inhibition, the IC50, lay at 12 nM.

The record behind these values is patent US20240383954A1, “PEPTIDE INHIBITORS OF INTERLEUKIN-23 RECEPTOR AND THEIR USE TO TREAT INFLAMMATORY DISEASES” (Janssen Biotech, Inc., priority 2020, published 2024).
